Some results are limits rather than exact numbers.

One test deals with Carbonic anhydrase 12 (Homo sapiens, UniProt O43570). Put plainly: Inhibition of human carbonic anhydrase 12 assessed as inhibition constant incubated for 1 hr prior to testing by phenol red based stopped-flow CO2 hydration assay.
Carbonic anhydrase 12, sequence (O43570 whole entry): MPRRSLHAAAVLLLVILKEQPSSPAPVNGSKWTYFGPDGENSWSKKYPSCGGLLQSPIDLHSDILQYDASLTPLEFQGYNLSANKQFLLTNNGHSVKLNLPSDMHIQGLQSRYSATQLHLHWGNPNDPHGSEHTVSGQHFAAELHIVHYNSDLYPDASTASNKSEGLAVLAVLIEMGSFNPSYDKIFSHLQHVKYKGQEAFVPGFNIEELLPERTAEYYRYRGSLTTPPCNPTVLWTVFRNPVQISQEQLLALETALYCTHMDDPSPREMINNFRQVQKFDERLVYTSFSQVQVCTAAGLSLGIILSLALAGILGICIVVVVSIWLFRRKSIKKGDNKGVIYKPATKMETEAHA
For the compound `COc1ccc(CNc2ccc(S(N)(=O)=O)cc2)cc1`, the Ki was 0.0112 µM.

The target of another test is Carbonic anhydrase 1 (Homo sapiens, UniProt P00915). In words: Inhibition of human carbonic anhydrase 1 assessed as inhibition constant incubated for 1 hr prior to testing by phenol red based stopped-flow CO2 hydration assay.
Carbonic anhydrase 1, sequence (P00915 whole entry): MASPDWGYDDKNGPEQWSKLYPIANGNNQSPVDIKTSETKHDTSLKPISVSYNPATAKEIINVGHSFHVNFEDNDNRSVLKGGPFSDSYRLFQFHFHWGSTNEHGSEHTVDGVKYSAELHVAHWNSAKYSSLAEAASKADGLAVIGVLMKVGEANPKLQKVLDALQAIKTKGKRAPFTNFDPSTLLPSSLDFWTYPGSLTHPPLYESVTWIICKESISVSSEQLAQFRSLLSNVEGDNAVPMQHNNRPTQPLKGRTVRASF
Turning to `COc1ccc(CNc2ccc(S(N)(=O)=O)cc2)cc1`, the inhibition constant Ki is greater than 50 µM.

The target of a further test is Carbonic anhydrase 9 (Homo sapiens, UniProt Q16790). Put plainly: Inhibition of human carbonic anhydrase 9 assessed as inhibition constant incubated for 1 hr prior to testing by phenol red based stopped-flow CO2 hydration assay.
`CCOP(=O)(OCC)C(Nc1ccc(S(N)(=O)=O)cc1)c1ccc(C)cc1` (stereo not drawn): the Ki was 0.147 µM.

On to `COc1ccc(CNc2ccc(S(N)(=O)=O)cc2)cc1`, for which the Ki came out at 0.883 µM.

In the case of `CCOP(=O)(OCC)C(Nc1ccc(S(N)(=O)=O)cc1)c1ccccc1F` (stereo not drawn), the Ki is 0.0267 µM.

Turning to `CCOP(=O)(OCC)C(Nc1ccc(S(N)(=O)=O)cc1)c1ccc(Cl)cc1` (stereo not drawn), the Ki came out at 0.142 µM.

On to `CCOP(=O)(OCC)C(Nc1ccc(S(N)(=O)=O)cc1)c1cccc(Br)c1` (stereo not drawn), for which the Ki came to 0.0613 µM.

In the case of `CCOP(=O)(OCC)C(Nc1ccc(S(N)(=O)=O)cc1)c1cc(OC)ccc1OC` (stereo not drawn), the Ki was found to be 0.47 µM.

`CCOP(=O)(OCC)C(Nc1ccc(S(N)(=O)=O)cc1)c1c(Br)cccc1OC` (stereo not drawn): the Ki was found to be 0.346 µM.

Regarding `CCOP(=O)(OCC)C(Nc1ccc(S(N)(=O)=O)cc1)c1ccc(OC)c(OC)c1` (stereo not drawn), the Ki came out at 0.118 µM.

Turning to `CCOP(=O)(OCC)C(Nc1ccc(S(N)(=O)=O)cc1)c1ccc(OC)cc1` (stereo not drawn), the Ki amounted to 0.14 µM.

Consider `CCOP(=O)(OCC)C(Nc1ccc(S(N)(=O)=O)cc1)c1ccc(F)cc1` (stereo not drawn), for which the Ki was found to be 0.0916 µM.

Consider `CCOP(=O)(OCC)C(Nc1ccc(S(N)(=O)=O)cc1)c1cccc(F)c1` (stereo not drawn), for which the Ki turned out to be 0.0391 µM.

On to `CCOP(=O)(OCC)C(Nc1ccc(S(N)(=O)=O)cc1)c1ccc(SC)cc1` (stereo not drawn), for which the Ki was found to be 0.0802 µM.

For the compound `CCOP(=O)(OCC)C(Nc1ccc(S(N)(=O)=O)cc1)c1ccc(-c2ccccc2)cc1` (stereo not drawn), the Ki came to 0.225 µM.

With `CCOP(=O)(OCC)C(Nc1ccc(S(N)(=O)=O)cc1)c1ccc(Br)cc1` (stereo not drawn), the Ki turned out to be 0.153 µM.

Regarding `CCOP(=O)(OCC)C(Nc1ccc(S(N)(=O)=O)cc1)c1cc(OC)c(OC)cc1OC` (stereo not drawn), the Ki was 0.249 µM.

Turning to `CCOP(=O)(OCC)C(Nc1ccc(S(N)(=O)=O)cc1)c1ccccc1[N+](=O)[O-]` (stereo not drawn), the Ki turned out to be 0.293 µM.

The term Ki denotes the dissociation constant of the complex between target and ligand, obtained from inhibition or displacement.

(Values after ChEMBL document CHEMBL5360666, “Inhibition Profiles of Some Novel Sulfonamide-Incorporated α-Aminophosphonates on Human Carbonic Anhydrases” (ACS Med Chem Lett, 2023).)
